Columns and labels:
Spodoptera frugiperda = Spodoptera frugiperda test (SPODFR spray treatment); format: in vivo; details: maize leaf discs, after 7 days
Method in brief: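 Maize leaf discs sprayed with active ingredient formulated in acetone/dimethylformamide with emulsifier, diluted in emulsifier-containing water to the desired concentration. After drying, discs were populated with armyworm caterpillars. Efficacy (%) scored after 7 days: 100% all caterpillars killed, 0% none killed.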

Tetranychus urticae = assay: Tetranychus test, OP-resistant (TETRUR spray treatment); format: in vivo; details: bean leaf discs, after 6 days
Method in brief: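 Bean leaf discs infested with all stages of OP-resistant T. urticae sprayed with compound formulated in acetone/DMF plus alkylaryl polyglycol ether emulsifier, diluted in water. Efficacy (% mites killed) scored after 6 days.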

adult Musca domestica = assay: Musca domestica test (MUSCDO); format: in vivo; details: application rate 100 ppm; treated sponge; after 2 days
Experimental: (§1) Musca domestica Test (MUSCDO) Solvent: dimethyl sulphoxide To prepare an appropriate active ingredient formulation, 10 mg of active ingredient are mixed with 0.5 ml of dimethyl sulphoxide and the concentrate is diluted with water to the desired concentration. Vessels containing a sponge treated with the active ingredient formulation of the desired concentration are populated with adult Musca domestica. After 2 days, the kill in % is determined 100% means that all of the flies have been killed; 0% means that none of the flies have been killed.

Lucilia cuprina larvae = assay: Lucilia cuprina test (LUCICU); format: in vivo; details: application rate 100 ppm; treated horse meat; after 2 days
Experimental: as §1, with “Lucilia cuprina” for “Musca domestica”, “(LUCICU)” for “(MUSCDO)”, “horse meat” for “a sponge”, “about 20 Lucilia cuprina larvae.” for “adult Musca domestica.”, “determined.” for “determined”, “larvae” for “flies”

Phaedon cochleariae = assay: Phaedon test (PHAECO spray treatment); format: in vivo; details: Chinese cabbage leaf discs, after 7 days
Method in brief: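 Chinese cabbage leaf discs were sprayed with compound in acetone/DMF with emulsifier, diluted in water to the test concentration. After drying, discs were infested with mustard beetle larvae. Efficacy in % was scored after 7 days, where 100% means all larvae were killed and 0% means none.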

logP (HPLC-MS) = format: physicochemical; details: HPLC, reversed-phase column (C18), 43° C.
Myzus persicae = assay: Myzus test (MYZUPE spray treatment); format: in vivo; details: Chinese cabbage leaf discs, after 6 days
Experimental: Myzus Test (MYZUPE Spray Treatment) Solvent: 78 parts by weight of acetone • • 1.5 parts by weight of dimethylformamide Emulsifier: 0.5 part by weight of alkylaryl polyglycol ether To produce an appropriate active ingredient formulation, 1 part by weight of active ingredient is mixed with the stated amounts of solvent and emulsifier, and the concentrate is diluted with emulsifier-containing water to the desired concentration. Leaf discs of Chinese cabbage (Brassica pekinensis) infested by all stages of the green peach aphid (Myzus persicae) are sprayed with an active ingredient formulation of the desired concentration. After 6 days, the efficacy in % is determined. 100% means that all of the aphids have been killed; 0% means that none of the aphids have been killed.

Boophilus microplus = Boophilus microplus test (BOOPMI injection); format: in vivo; details: application rate 20 μg/animal; injected into the abdomen; after 7 days
Experimental: Boophilus microplus Test (BOOPMI Injection) Solvent: dimethyl sulphoxide To prepare an appropriate active ingredient formulation, 10 mg of active ingredient are mixed with 0.5 ml of solvent and the concentrate is diluted with solvent to the desired concentration. The active ingredient solution is injected into the abdomen (Boophilus microplus), and the animals are transferred into dishes and stored in a climate-controlled room. After 7 days, the efficacy in % is determined. The activity is assessed by laying of fertile eggs. 100% means that none of the ticks has laid any fertile eggs.

Ctenocephalides felis = Ctenocephalides felis oral (CTECFE); format: in vivo; details: application rate 100 ppm in citrated cattle blood; after 2 days
Experimental: Ctenocephalides felis Oral ([…]) Solvent: 1 part by weight of dimethyl sulphoxide For the purpose of preparing an appropriate active ingredient formulation, 10 mg of active ingredient are mixed with 0.5 ml of dimethyl sulphoxide. A portion of the concentrate is diluted with citrated cattle blood, and the desired concentration is prepared. About 20 unfed adult fleas (Ctenocephalides felis) are placed into a chamber which is closed at the top and bottom with gauze. A metal cylinder whose bottom end is closed with Parafilm is placed onto the chamber. The cylinder contains the blood/active ingredient formulation, which can be imbibed by the fleas through the Parafilm membrane. After 2 days, the kill in % is determined 100% means that all of the fleas have been killed; 0% means that none of the fleas have been killed.

[1] = acidic range pH 2.7, acetonitrile (0.1% formic acid)/water gradient, calibration with unbranched alkan-2-ones
[2] = acidic range pH 2.7, EEC directive 79/831 Annex V.A8, two values = both regioisomers (G = N)

Row | SMILES | log p (logP (HPLC-MS); [1]) | log p (logP (HPLC-MS); [2]) | efficacy in % (Spodoptera frugiperda; application rate 100 g/ha) [%] | efficacy in % (Tetranychus urticae; application rate 100 g/ha) [%] | efficacy (kill in %) (adult Musca domestica) [%] | efficacy (kill in %) (Lucilia cuprina larvae) [%] | efficacy in % (Phaedon cochleariae; application rate 100 g/ha) [%] | efficacy in % (Myzus persicae; application rate 100 g/ha) [%] | efficacy (laying of fertile eggs) (Boophilus microplus) [%] | efficacy (kill in %) (Ctenocephalides felis) [%] | efficacy in % (Spodoptera frugiperda; application rate 500 g/ha) [%] | efficacy in % (Tetranychus urticae; application rate 500 g/ha) [%] | efficacy in % (Phaedon cochleariae; application rate 500 g/ha) [%] | efficacy in % (Myzus persicae; application rate 500 g/ha) [%]
1 | CCn1c(C(=O)NC(c2cccc(C(F)(F)F)c2)C(F)(F)F)cc2cc(C(=O)NC3(C#N)CC3)c(C)cc21 (stereo not drawn) [Compound 183] | 3.75 |  | 100 | 100 |  |  | 100 | 90 |  |  |  |  |  | 
2 | C#CCn1c(C(=O)NC(c2cccc(C(F)(F)F)c2)C(F)(F)F)cc2cc(C(=O)NC3(C#N)CC3)c(C)cc21 (stereo not drawn) [Compound 209] | 3.48 |  | 100 | 100 |  |  | 100 | 90 |  |  |  |  |  | 
3 | CCn1c(C(=O)NC(c2cc(Cl)c(Cl)c(Cl)c2)C(F)(F)F)cc2cc(C(=O)NC3(C#N)CC3)c(C)cc21 (stereo not drawn) [Compound 289] |  | 4.43 | 100 | 100 |  |  | 100 |  |  |  |  |  |  | 100
4 | CCn1c(C(=O)NC(c2cc(Cl)c(F)c(Cl)c2)C(F)(F)F)cc2cc(C(=O)NC3(C#N)CC3)c(C)cc21 (stereo not drawn) [Compound 290] |  | 4.13 | 100 | 100 |  |  | 100 |  |  |  |  |  |  | 100
5 | CCn1c(C(=O)NC(c2cc(Cl)cc(Cl)c2)C(F)(F)F)cc2cc(C(=O)NC3(C#N)CC3)c(C)cc21 (stereo not drawn) [Compound 291] |  | 4.07 | 100 | 100 |  |  | 100 | 90 |  |  |  |  |  | 
6 | O=C(NC1CC1)c1cc2nc(C(=O)NC(c3ccc(F)c(C(F)(F)F)c3)C(F)(F)F)n(C3CC3)c2cc1Br (stereo not drawn) [Compound 300] |  | 3.59 |  |  |  |  |  | 100 |  |  | 100 | 100 | 100 | 
7 | C=CCN(C(=O)c1cc2nc(C(=O)NC(c3ccc(F)c(Cl)c3)C(F)(F)F)n(CC=C)c2cc1Cl)C1CC1 (stereo not drawn) [Compound 303] |  | 4.75 |  |  |  |  |  | 90 |  |  | 100 | 100 | 100 | 
8 | CCn1c(C(=O)NC(c2cc(Cl)c(F)c(Cl)c2)C(F)(F)F)cc2cc(C(=O)NC3(C#N)CC3)c(Cl)cc21 (stereo not drawn) [Compound 311] |  | 4.19 | 100 | 100 |  |  | 100 | 90 |  |  |  |  |  | 
9 | O=C(NC1CC1)c1cc2nc(C(=O)NC(c3ccc(F)c(C(F)(F)F)c3)C(F)(F)F)n(C3CC3)c2cc1Cl (stereo not drawn) [Compound 313] |  | 3.38 |  |  |  |  |  |  |  |  | 100 | 90 | 100 | 90
10 | O=C(NC1CC1)c1cc2nc(C(=O)NC(c3cccc(Br)c3)C(F)(F)F)n(C3CC3)c2cc1Cl (stereo not drawn) [Compound 314] |  | 3.43 | 100 | 90 |  |  | 100 | 90 |  |  |  |  |  | 

Second part, led by results:

Row | log p (logP (HPLC-MS); [1]) | log p (logP (HPLC-MS); [2]) | SMILES | efficacy in % (Spodoptera frugiperda; application rate 100 g/ha) [%] | efficacy in % (Tetranychus urticae; application rate 100 g/ha) [%] | efficacy (kill in %) (adult Musca domestica) [%] | efficacy (kill in %) (Lucilia cuprina larvae) [%] | efficacy in % (Phaedon cochleariae; application rate 100 g/ha) [%] | efficacy in % (Myzus persicae; application rate 100 g/ha) [%] | efficacy (laying of fertile eggs) (Boophilus microplus) [%] | efficacy (kill in %) (Ctenocephalides felis) [%] | efficacy in % (Spodoptera frugiperda; application rate 500 g/ha) [%] | efficacy in % (Tetranychus urticae; application rate 500 g/ha) [%] | efficacy in % (Phaedon cochleariae; application rate 500 g/ha) [%] | efficacy in % (Myzus persicae; application rate 500 g/ha) [%]
11 | 3.82 |  | CCn1c(C(=O)NC(c2ccc(F)c(Br)c2)C(F)(F)F)cc2cc(C(=O)NC3CC3)c(Cl)cc21 (stereo not drawn) [Compound 12] | 100 | 100 | 100 | 100 | 100 | 90 | 100 | 100 |  |  |  | 
12 | 3.59 |  | CCn1c(C(=O)NC(c2ccc(F)c(Cl)c2)C(F)(F)F)nc2cc(C(=O)NC3CC3)c(Cl)cc21 (stereo not drawn) [Compound 37] |  |  | 100 | 100 |  |  | 100 | 100 | 100 | 100 | 100 | 90
13 | 3.71 |  | CCn1c(C(=O)NC(c2ccc(F)c(C(F)(F)F)c2)C(F)(F)F)nc2cc(C(=O)NC3CC3)c(Cl)cc21 (stereo not drawn) [Compound 38] |  |  | 100 | 100 |  | 100 | 100 | 100 | 100 | 100 | 100 | 90
14 | 3.71 |  | CCn1c(C(=O)NC(c2cccc(Br)c2)C(F)(F)F)cc2cc(C(=O)NC3CC3)c(Cl)cc21 (stereo not drawn) [Compound 40] | 100 | 100 |  | 100 | 100 | 90 | 100 | 100 |  |  |  | 
15 | 3.52 |  | Cn1c(C(=O)NC(c2ccc(F)c(Cl)c2)C(F)(F)F)cc2cc(C(=O)NC3(C#N)CC3)c(Cl)cc21 (stereo not drawn) [Compound 54] | 100 | 100 | 100 | 100 | 100 | 100 | 100 | 100 |  |  |  | 
16 | 3.50 |  | C#CCn1c(C(=O)NC(c2ccc(F)c(Cl)c2)C(F)(F)F)nc2cc(C(=O)NC3CC3)c(Cl)cc21 (stereo not drawn) [Compound 101] | 100 | 80 |  |  | 100 | 80 |  |  |  |  |  | 
17 | 3.66 |  | CCn1c(C(=O)NC(c2ccc(F)c(Cl)c2)C(F)(F)F)cc2cc(C(=O)NC3(C#N)CC3)c(C)cc21 (stereo not drawn) [Compound 193] | 100 | 100 |  |  | 100 | 90 |  |  |  |  |  | 
18 |  | 3.79 | C=CCn1c(C(=O)NC(c2ccc(F)c(C(F)(F)F)c2)C(F)(F)F)nc2cc(C(=O)NC3CC3)c(Cl)cc21 (stereo not drawn) [Compound 281] |  |  |  |  |  | 100 |  |  | 100 | 100 | 100 | 90
19 |  | 3.40 | CCn1c(C(=O)NC(c2ccc(F)c(F)c2)C(F)(F)F)cc2cc(C(=O)NC3CC3)c(C)cc21 (stereo not drawn) [Compound 295] | 100 | 100 |  |  | 100 | 90 |  |  |  |  |  | 
20 |  | 3.47 | CCn1c(C(=O)NC(c2ccc(F)c(F)c2)C(F)(F)F)cc2cc(C(=O)NC3(C#N)CC3)c(Cl)cc21 (stereo not drawn) [Compound 315] | 100 | 100 |  |  | 100 | 90 |  |  |  |  |  | 
21 |  | 4.06 | CCn1c(C(=O)NC(c2ccc(Cl)c(Cl)c2)C(F)(F)F)cc2cc(C(=O)NC3(C#N)CC3)c(Cl)cc21 (stereo not drawn) [Compound 316] | 100 | 100 |  |  | 100 | 90 |  |  |  |  |  | 

From US9107411B2, “Indolecarboxamides and benzimidazolecarboxamides as insecticides and acaricides” (BAYER INTELLECTUAL PROPERTY GMBH, priority 2011, dated 2015)
